In data set [1] the test system is transgenic T.cruzi Brazil luc strain. Nature of the data set: 4-day mouse model of infection, luciferase readout. The class given is in vivo, Trypanosoma cruzi. The settings on record: for Chagas mouse model (4 days treatment, luciferase): In vivo efficacy at 50 mg/kg bid (IP): Balb/c mice, 50 mg/kg b.i.d. IP, read at day 7 post-infection, benznidazole = 100%, vehicle = 0%. The source says:
To assess in vivo efficacy of test compounds, a 4-day mouse model of infection by transgenic T.cruzi Brazil luc strain expressing firefly luciferase was used as previously described. Six-week-old female Balb/c mice (average weight 20g) were obtained from Simonsen Labs (Gilroy, CA). All animal protocols were approved and carried out in accordance with the guidelines established by the Institutional Animal Care and Use Committee from UCSD (Protocol S14187). Mice were housed at a maximum of 5 per cage and kept in a specific-pathogen-free (SPF) room at 20 to 24°C under a 12-h light/12-h dark cycle and provided with sterilized water and chow ad libitum. To infect the mice, trypomastigotes of T. cruzi Brazil luc strain were used. The parasites were harvested from culture supernatant 7 days after the infection of C2C12 myocytes in T.75 culture flasks using DMEM media supplemented with 5% FBS. The harvested parasites were counted and the density was adjusted for 10^6 parasites per milliliter of DMEM media without FBS. For the mouse infection, 100 ul of the parasite solution was injected intraperitoneally (10^5 trypomastigotes) per mouse. Starting on day 3 the infected mice were treated with test compounds at 50 mg/kg administered in 20% Kolliphor, IP, b.i.d., for four consecutive days. Two control groups included untreated mice, which received a vehicle (20% Kolliphor HS 15, a.k.a. Solutol), and the positive control groups, which received 50 mg/kg benznidazole, IP, twice a day (b.i.d). At day 7 post-infection, the luminescent signal from infected mice was read upon injection of D-luciferin. The absolute numbers of measured photons/s/cm^2 were averaged between all five mice in each group. The average photons/s/cm^2 from the group treated with benznidazole was normalized as 100% efficacy and the average photons/s/cm^2 from the group treated with vehicle only was normalized as 0% efficacy. Using a linear correlation, the average photons/s/cm^2 of each compound was normalized in the same efficacy scale as the controls.

A further data set has as its system T. cruzi. Also on record: method as in PMID 21912715. The settings on record: retest of Broad HTS hits in one study; cited from earlier work.
The subject of a further data set is T. cruzi CA-I/72. Nature of the data set: Secondary screening (dose-response assay). The data set is classed as cell-based, Trypanosoma cruzi. The procedure:
(§1) T. cruzi CA-I/72 trypomastigotes were obtained from C2C12 infected-culture supernatants after 4–7 days of infection. Cultures were maintained at 37°C with 5% CO2. […] Compounds were added at 10 mM in 50 nl per well using a Biomek FX (Beckman Coulter) for a final 10 μM concentration in 50 μl total volume, and 2,500 parasites were added in 10 μl per well. The plate was incubated for 72 hours at 37°C with 5% CO2. After the incubation, the plate was fixed with the addition of 50 μl of 8% paraformaldehyde solution, followed by two successive washing steps using PBS. Finally, a staining solution containing 0.5 μg/ml of 4',6-diamidino-2-phenylindole (DAPI) was added to each well of the plate and incubated for at least 4 hours prior to reading. Images were acquired by an IN Cell Analyzer 2000 (GE Healthcare) and analyzed by IN Cell Analyzer Developer 1.6 software. […] Numbers of host cells and intracellular amastigotes were determined based on host cell and parasite nucleus quantification, providing a measure of growth inhibition during the first 72 h of post-infection treatment compared to untreated controls. […] The host cell viability was assessed based on the total number of cells divided by the average number of cells from untreated controls (0.1% DMSO), being <0.5 considered a cytotoxic compound. This assay was performed in duplicate.
The hit selection criteria: >50% activity at 10 μM and >0.5 host cell viability in the primary screening. To determine the potency of the hit compounds, we performed a dose-response assay. EC50 values of compounds were determined applying the same assay used in the primary screening. […] Then, 50 nl of each sample were diluted in 50 μl media (DMEM H-21) and added to the experimental plate followed by incubation at 37°C with 5% CO2 for 72 h.

Data set [2] has as its target T. cruzi Tulahuen genetically modified to express Beta-galactosidase. The settings on record: cited from earlier work; for EC50: Broad dataset, read-out: EC50 in the Broad dose response dataset.
A further data set can be described thus: Host cell cytotoxicity. The data set is classed as cell-based. The settings on record: mouse; C2C12 host cells. The procedure:
as §1

Where [3] appears, read: Trypanosoma cruzi, C2C12, 72 h, intracellular T. cruzi in C2C12 cells, 72 h, read-out: EC50.
Setting [4] is: Trypanosoma cruzi, intracellular T. cruzi in C2C12 cells, 72 h, read-out: EC90.
The mark [5] stands for this setting: intracellular T. cruzi in C2C12 cells, 72 h, read-out: EC50.

Counter-ions that a name gives are not always drawn. Like-named read-outs stand apart in the source and are kept apart here.

For the compound `COc1ccc(CCN(C)CCCC(C#N)(c2ccc(OC)c(OC)c2)C(C)C)cc1OC` (racemic) [SC-0005695, (±)-Verapamil hydrochloride], in data set [1], the “Chagas mouse model (4 days treatment, luciferase): In vivo efficacy at 50 mg/kg bid (IP)” value (from here on “Chagas mouse model”) turned out to be 55.1%. The IC50 in the data set with T. cruzi is more than 50000 nM. This compound showed a 90% effect concentration (EC90) with T. cruzi CA-I/72 (Trypanosoma cruzi, C2C12, 72 h) of 143 nM. The EC50 in the data set with T. cruzi CA-I/72 (intracellular T. cruzi in C2C12 cells, 72 h, listed as (±)-Verapamil hydrochloride) is 38.3 nM; in the data set with T. cruzi CA-I/72 (intracellular T. cruzi in C2C12 cells, 72 h, listed as verapamil) it was less than 1000 nM; in data set [2], less than 100 nM.
For `O=C(Cn1ccnc1[N+](=O)[O-])NCc1ccccc1` [Benznidazole], the “Chagas mouse model” value in data set [1] was found to be 100%.
For `COc1ccc2cc1Oc1ccc(cc1)C[C@H]1c3cc(c(OC)cc3CCN1C)Oc1c(OC)c(OC)cc3c1[C@H](C2)N(C)CC3` [SC-0011496, Tetrandrine], the “Chagas mouse model” value in data set [1] was found to be 43.6%. Besides, the “Statistical significance of in vivo efficacy” value in data set [1] (Student t test vs vehicle at day 7, p≤ 0.05) is recorded as “does not appear to have statistically significant efficacy in vivo”. The 50% effective concentration (EC50) with T. cruzi CA-I/72 (setting [3]) was less than 1000 nM; in the data set on T. cruzi CA-I/72 (setting [5]), 508 nM. Moreover, the EC90 in the data set on T. cruzi CA-I/72 (setting [4]) is 1570 nM. The compound further displayed a half-maximal cytotoxic concentration (CC50) at 72 h in the data set “Host cell cytotoxicity” of 1300 nM. Moreover, the “Result in the larger Broad HTS screening dataset to identify inhibitors of replication” value in data set [2] is “inactive”.
With `O=C1OCCN1/N=C/c1ccc([N+](=O)[O-])o1` [SC-0011742, Furazolidone], the “Chagas mouse model” value in data set [1] (listed as Furazolidone, 50 mg/kg) is 100.5%; in data set [1] (listed as furazolidone, 50 mg/kg), 100%.
For the compound `NC(=O)N/N=C/c1ccc([N+](=O)[O-])o1` [SC-0011754, Nitrofural], the EC50 was less than 1000 nM in the data set on T. cruzi CA-I/72 (setting [3]) and 775 nM in the data set with T. cruzi CA-I/72 (setting [5]). The concentration for an effect of 90% (EC90) in the data set with T. cruzi CA-I/72 (setting [4]) was found to be 6980 nM. The same compound came in with a CC50 at 72 h in the data set “Host cell cytotoxicity” of more than 10000 nM.
As for `COc1ccc2nc3cc(Cl)ccc3c(Nc3cc(CN4CCCC4)c(O)c(CN4CCCC4)c3)c2n1` [SC-0011799, Pyronaridine], the “Chagas mouse model” value in data set [1] is reported as 85.2%. The EC90 in the data set on T. cruzi CA-I/72 (setting [4]) came out at 665 nM. For the same compound, the EC50 in the data set on T. cruzi CA-I/72 (intracellular T. cruzi in C2C12 cells, 72 h, listed as Pyronaridine, read-out: EC50) was 225 nM; with T. cruzi CA-I/72 (intracellular T. cruzi in C2C12 cells, 72 h, listed as pyronaridine, read-out: EC50), less than 1000 nM; in data set [2], less than 587 nM. The midpoint of cytotoxicity in “Host cell cytotoxicity”, the CC50 at 72 h, lay at 3000 nM.
As for `O=C(NCO)N/N=C/c1ccc([N+](=O)[O-])o1` [hydroxymethylnitrofurazone, Hydroxymethylnitrofurazone], the “Chagas mouse model” value in data set [1] (50 mg/kg) is on record as 78.5%.

Broadly, the IC50 is the point on the concentration scale where inhibition reaches its midpoint. As a reminder, the EC90 is the concentration at which the effect reaches the 90% level. By EC50 is commonly meant the concentration that produces a half-maximal response. Usually CC50 stands for the concentration at which the toxic effect on the cells reaches its halfway point. Higher therefore signals lower toxicity to the cells.

Source of the values: article PMC4482694, “Machine Learning Models and Pathway Genome Data Base for Trypanosoma cruzi Drug Discovery” (PLoS Neglected Tropical Diseases, 2015).
